ChEMBL document CHEMBL6177955, “Design, synthesis and biological evaluation of Golgi-targeting anion transporters as inducers of Golgiphagy and apoptosis in cancer cells” (Eur J Med Chem, 2025)
Calls of active or inactive are those of the source. The rule behind the calls is not given here.

What was measured:
Lipid bilayer [1] = assay: Vesicular anionophoric activity in large unilamellar vesicle membrane derived from egg-yolk L-alpha-phosphatidylcholine assessed as induction of relative efflux of chloride ions in presence of rubidium (Rb+) measured up to 300 seconds by using chloride-selective electrode; conditions: time <= 300.0 sec
HepG2 [2] = assay: Induction of apoptosis in human HepG2 cells assessed as necrotic cells at 5 uM measured after 24 hrs incubation by Propidium iodide/Annexin V-FITC analysis (reference value: 1.14%); assay type: functional
HepG2 [3] = assay: Disruption of homeostasis of chloride anions in golgi apparatus of human HepG2 cells assessed as increase in fluorescence intensity of 6-methoxy-1-(2-oxo-2-((4-sulfamoylphenyl)amino)ethyl)quinolin-1-ium Bromide measured after 12 hts by CLSM imaging analysis; assay type: functional, cell-based
HepG2 [4] = assay: Induction of chloride ion influx in human HepG2 cells assessed as effect on lysosomal chloride anions at 5 to 20 uM measured after 12 hrs incubation by chloride-sensitive dye MQAE-MP based CLSM imaging analysis; assay type: functional, cell-based; conditions: dose 5-20 µM
HepG2 [5] = assay: Induction of apoptosis in human HepG2 cells assessed as late apoptotic cells at 20 uM measured after 24 hrs incubation by Propidium iodide/Annexin V-FITC analysis (reference value: 5.71%); assay type: functional
HepG2 [6] = assay: Induction of apoptosis in human HepG2 cells assessed as reduction in Golgi-associated apoptotic proteins (GAAPs) expression measured after 24 hrs by Western blot analysis; assay type: functional, cell-based
HepG2 [7] = assay: Effect on dysregulation mediated autophagy in human HepG2 cells assessed as increase in p62 marker expression at 5 to 20 uM measured after 48 hrs incubation by Western blot analysis; assay type: functional, cell-based; conditions: dose 5-20 µM
HepG2 [8] = assay: Induction of apoptosis in human HepG2 cells assessed as early apoptotic cells at 10 uM measured after 24 hrs incubation by Propidium iodide/Annexin V-FITC analysis (reference value: 2.90%); assay type: functional
[9] = Toxicity in mouse xenografted with human HepG2 cells assessed as blood urea nitrogen (BUN) at 5 to 10 mg/kg, ip administered once every 2 days for 21 days; assay type: organism-based; conditions: in vivo, 504 h, dose 5-10 mg/kg, time 21 day
HepG2 [10] = assay: Antitumor activity against human HepG2 cells xenografted mouse model assessed as reduction GRASP55 expression in tumor tissue at 5 to 10 mg/kg, ip administered once every 2 days for 21 days; assay type: functional, organism-based; conditions: dose 5-10 mg/kg, time 21.0 day
[11] = Toxicity in mouse xenografted with human HepG2 cells assessed as creatine kinase (CK) at 5 to 10 mg/kg, ip administered once every 2 days for 21 days; assay type: organism-based; conditions: in vivo, 504 h, dose 5-10 mg/kg, time 21 day
HepG2 [12] = assay: Induction of apoptosis in human HepG2 cells assessed as late apoptotic cells at 5 uM measured after 24 hrs incubation by Propidium iodide/Annexin V-FITC analysis (reference value: 5.71%); assay type: functional
HepG2 [13] = assay: Induction of apoptosis in human HepG2 cells assessed as necrotic cells at 20 uM measured after 24 hrs incubation by Propidium iodide/Annexin V-FITC analysis (reference value: 1.14%); assay type: functional
HepG2 [14] = assay: Induction of autophagosome formation in human HepG2 cells assessed as green fluorescence in mitochondria by measuring pearson co-localization at 10 uM measured after 12 hrs incubation by mCherry-LC3B assay; assay type: functional
[15] = Toxicity in mouse xenografted with human HepG2 cells assessed as aspartate aminotransferase (AST) at 5 to 10 mg/kg, ip administered once every 2 days for 21 days; assay type: organism-based; conditions: in vivo, 504 h, dose 5-10 mg/kg, time 21 day
[16] = Toxicity in mouse xenografted with human HepG2 cells assessed as histopathological changes in lung at 5 to 10 mg/kg, ip administered once every 2 days for 21 days by H and E staining based analysis; assay type: organism-based; conditions: in vivo, 504 h, dose 5-10 mg/kg, time 21 day
HepG2 [17] = assay: Induction of autophagosome formation in human HepG2 cells assessed as green fluorescence in Golgi apparatus by measuring pearson co-localization at 10 uM measured after 12 hrs incubation by mCherry-LC3B assay; assay type: functional
Lipid bilayer [18] = assay: Vesicular anionophoric activity in large unilamellar vesicle membrane derived from egg-yolk L-alpha-phosphatidylcholine assessed as induction of relative efflux of chloride ions in presence of cesium (Cs+) measured up to 300 seconds by using chloride-selective electrode; conditions: time <= 300.0 sec
HepG2 [19] = assay: Antitumor activity against human HepG2 cells xenografted mouse model assessed as reduction Golgi-associated apoptotic proteins (GAAPs) expression in tumor tissue at 5 to 10 mg/kg, ip administered once every 2 days for 21 days; assay type: functional, organism-based; conditions: dose 5-10 mg/kg, time 21.0 day
HepG2 [20] = assay: Effect on dysregulation mediated autophagy in human HepG2 cells assessed as increase in LC3B marker expression at 5 to 20 uM measured after 48 hrs incubation by Western blot analysis; assay type: functional, cell-based; conditions: dose 5-20 µM
HepG2 [21] = assay: Induction of autophagosome formation in human HepG2 cells assessed as green fluorescence in endoplasmic reticulum (ER) by measuring pearson co-localization at 10 uM measured after 12 hrs incubation by mCherry-LC3B assay; assay type: functional
HepG2 [22] = assay: Antitumor activity against human HepG2 cells xenografted mouse model assessed as reduction in tumor growth inhibition at 1 mg/kg, ip administered once every 2 days for 21 days relative to control; assay type: functional; conditions: HepG2, 504 h, time 21 day, read-out: TGI
[23] = Toxicity in mouse xenografted with human HepG2 cells assessed as histopathological changes in kidney at 5 to 10 mg/kg, ip administered once every 2 days for 21 days by H and E staining based analysis; assay type: organism-based; conditions: in vivo, 504 h, dose 5-10 mg/kg, time 21 day
HepG2 [24] = assay: Induction of apoptosis in human HepG2 cells assessed as late apoptotic cells at 10 uM measured after 24 hrs incubation by Propidium iodide/Annexin V-FITC analysis (reference value: 5.71%); assay type: functional
HepG2 [25] = assay: Antitumor activity against human HepG2 cells xenografted mouse model assessed as reduction GM130 expression in tumor tissue at 5 to 10 mg/kg, ip administered once every 2 days for 21 days; assay type: functional, organism-based; conditions: dose 5-10 mg/kg, time 21.0 day
[26] = Toxicity in mouse xenografted with human HepG2 cells assessed as lactate dehydrogenase (LDH) at 5 to 10 mg/kg, ip administered once every 2 days for 21 days; assay type: organism-based; conditions: in vivo, 504 h, dose 5-10 mg/kg, time 21 day
MCF7 = assay: Antiproliferative activity against human MCF7 cells by MTT assay; assay type: functional, cell-based
HepG2 [27] = assay: Antitumor activity against human HepG2 cells xenografted mouse model assessed as reduction in tumor growth inhibition at 5 mg/kg, ip administered once every 2 days for 21 days relative to control; assay type: functional; conditions: HepG2, 504 h, time 21 day, read-out: TGI
HCT-8 = assay: Antiproliferative activity against human HCT-8 cells by MTT assay; assay type: functional, cell-based
HT-29 = assay: Antiproliferative activity against human HT-29 cells by MTT assay; assay type: functional, cell-based
[28] = Toxicity in mouse xenografted with human HepG2 cells assessed as histopathological changes in liver at 5 to 10 mg/kg, ip administered once every 2 days for 21 days by H and E staining based analysis; assay type: organism-based; conditions: in vivo, 504 h, dose 5-10 mg/kg, time 21 day
HepG2 [29] = assay: Induction of apoptosis in human HepG2 cells assessed as early apoptotic cells at 20 uM measured after 24 hrs incubation by Propidium iodide/Annexin V-FITC analysis (reference value: 2.90%); assay type: functional
HepG2 [30] = assay: Induction of Golgi apparatus disruption in human HepG2 cells at 5 to 10 uM measured after 24 hrs by TEM imaging analysis; assay type: functional, cell-based; conditions: dose 5-10 µM
HepG2 [31] = assay: Antitumor activity against human HepG2 cells xenografted mouse model assessed as reduction in tumor growth inhibition at 10 mg/kg, ip administered once every 2 days for 21 days relative to control; assay type: functional; conditions: HepG2, 504 h, time 21 day, read-out: TGI

## NS(=O)(=O)c1ccc(NC(=O)CCCCCNc2c(Nc3cc(C(F)(F)F)cc(C(F)(F)F)c3)c(=O)c2=O)cc1
Lipid bilayer [1]
  Activity: Active
HepG2 [2]
  Activity: 1.64%
HepG2 [3]
  EC50: 13.8 µM
HepG2 [4]
  Activity: inactive
HepG2 [5]
  Activity: 36.5%
HepG2 [6]
  Activity: Dose-dependent-effect
HepG2 [7]
  Activity: Active
HepG2 [8]
  Activity: 20.2%
[9]
  Activity: Non-toxic
HepG2 [10]
  Activity: Active
[11]
  Activity: Non-toxic
HepG2 [12]
  Activity: 12.9%
HepG2 [13]
  Activity: 7.19%
HepG2 [14]
  Activity: 0.23
[15]
  Activity: Non-toxic
[16]
  Activity: Non-toxic
HepG2 [17]
  Activity: 0.83
Lipid bilayer [18]
  Activity: Active
HepG2 [19]
  Activity: Active
HepG2 [20]
  Activity: Active
HepG2 [21]
  Activity: 0.13
HepG2 [22]
  inhibition in vivo at 1 mg/kg: 41%
[23]
  Activity: Non-toxic
HepG2 [24]
  Activity: 24.6%
HepG2 [25]
  Activity: Active
[26]
  Activity: Non-toxic
MCF7
  IC50: 12.7 µM
HepG2 [27]
  inhibition in vivo at 5 mg/kg: 62%
HCT-8
  IC50: > 50 µM
HT-29
  IC50: > 50 µM
[28]
  Activity: Non-toxic
HepG2 [29]
  Activity: 34.2%
HepG2 [30]
  Activity: Active
HepG2 [31]
  inhibition in vivo at 10 mg/kg: 77%
